From publication PMC12693182, “Synthesis and QSAR Studies of Claramine Derivatives, a New Class of Broad-Spectrum Antimicrobial Agents” (Molecules, 2025)
Values after ≈ are worked out from the molar mass of the structure shown.

Key:
[1] = system: Chinese hamster Ovary cells (CHO-K1); experiment: Cytotoxicity assay (WST-1 / Neutral Red); assay type: cell-based; conditions: Cricetulus griseus, 24 h, 24-h incubation
Experimental: The cytotoxic activities of compounds were assessed on Chinese hamster Ovary cells (CHO-K1) provided from ATCC-LGC Standards Sarl (Molsheim, France). Cells were maintained in Mc Coy’s 5A (CHO) medium supplemented with 10% bovine calf serum, 2 mM glutamine, and 100 U mL^−1/10 µg mL^−1 penicillin/streptomycin mixtures. For the cytotoxicity experiments, they were seeded in 96-well plates and incubated at 37 °C in humidified atmosphere containing 5% CO2 overnight, then concentrations of compounds were incorporated in triplicate cultures. After a 24-h incubation period at 37 °C, cells were submitted to three successive washes in phosphate buffer saline (PBS) and cell viability was evaluated by two different vital dyes: • i. A first set of cell cultures was incubated in PBS containing 10% WST-1 for 30 min at 37 °C, 5% CO2. Cell viability was evaluated by the assessment of WST-1 absorbance at 450 nm in a microplate spectrophotometer. • ii. A second set of cell cultures was placed into Neutral Red medium (50 μg mL^−1 Neutral Red in complete medium) and incubated for 3 h at 37 °C, 5% CO2. Then the Neutral Red medium was removed and the distaining solution (50% ethanol, 1% acetic acid, 49% distilled water; 50 µL per well) was added into the wells. The plates were shaken for 15–20 min at room temperature in the dark. Cell viability was evaluated by the assessment of absorbance at 540 nm in a microplate spectrophotometer.
Results were expressed as percentages of cell viability about the control (culture medium-only), which corresponded to 100% cell viability. Dose-response curves were calculated by non-linear regression analysis with TableCurve 2D software (V 5.0.1) (Systat Software Inc., San Jose, CA, USA). The Inhibitory Concentration 50% (IC50) was defined as the concentration of compounds that induced a 50% decrease of viable cells.

[2] = system: S. aureus 340 and P. aeruginosa 1051575; experiment: MIC against S. aureus and P. aeruginosa strains (Figure 6); assay type: cell-based; conditions: range over both strains, C-24 methyl ester series
Experimental: Antimicrobial activity of the compounds was studied by determination of minimal inhibitory concentrations (MIC) according to the NCCLS guidelines M7-A2 using the microbroth dilution methods. The bacteria strains were grown on trypticase soy agar (Becton Dickinson) at 37 °C for 24 h. Inocula were prepared in TCE (tryptone 0.1%, […], wt/vol) by ajusting the turbidity at 623 nm to obtain 1–3 10^5 CFU/mL.
Antimicrobial activities of the compounds were determined by using a broth microdilution method performed in sterile 96-well microplates. All compounds were solubilized in water at a concentration of 10 mM and were transferred to each microplate well in order to obtain a two-fold serial dilution in 100 µL of broth and 100 µL of inoculum containing 2–6 10^5 CFU of each bacterium were added to each well. Some wells were reserved for positive controls and inoculum viability.

Row | Compound | IC50 [1] | MIC [2]
1 | COC(=O)CCC(C)C1CCC2C3CCC4CC(NCCCNCCCCNCCCN)CCC4(C)C3CC(O)C12C (stereo not drawn) [Claramine A05] | 8 µg/mL (≈ 13.5 µM) | 2 to 4 µg/mL (≈ 3.38 to 6.77 µM)
2 | COC(=O)CCC(C)C1CCC2C3CCC4CC(NCCCCN)CCC4(C)C3CC(O)C12C (stereo not drawn) [Claramine A11] | – | 6 to 50 µg/mL (≈ 12.6 to 105 µM)
